Data published in PubChem BioAssay (NCI).
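Assay format: 96-well plates, 48-hour exposure. GI50 marks 50% less growth. At the TGI there is no net growth.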

What was measured:
Test in all cases: NCI anticancer screen, dose series, 48 h
786-0 renal = system: 786-0 renal
A498 renal = system: A498 renal
A549 NSCLC = system: A549 NSCLC
ACHN renal = system: ACHN renal
BT-549 breast = system: BT-549 breast
CAKI-1 renal = system: CAKI-1 renal
CCRF-CEM leukemia = system: CCRF-CEM leukemia
COLO 205 colon = system: COLO 205 colon
DU-145 prostate = system: DU-145 prostate
EKVX NSCLC = system: EKVX NSCLC
HCC-2998 colon = system: HCC-2998 colon
HCT-116 colon = system: HCT-116 colon
HCT-15 colon = system: HCT-15 colon
HL-60(TB) leukemia = system: HL-60(TB) leukemia
HOP-62 NSCLC = system: HOP-62 NSCLC
HOP-92 NSCLC = system: HOP-92 NSCLC
HS 578T breast = system: HS 578T breast
HT29 colon = system: HT29 colon
IGROV1 ovarian = system: IGROV1 ovarian
K-562 leukemia = system: K-562 leukemia
KM12 colon = system: KM12 colon
LOX IMVI melanoma = system: LOX IMVI melanoma
M14 melanoma = system: M14 melanoma
MALME-3M melanoma = system: MALME-3M melanoma
MCF7 breast = system: MCF7 breast
MDA-MB-231 breast = system: MDA-MB-231 breast
MDA-MB-435 = system: MDA-MB-435
MOLT-4 leukemia = system: MOLT-4 leukemia
NCI-H226 lung = system: NCI-H226 lung
NCI-H23 lung = system: NCI-H23 lung
NCI-H460 lung = system: NCI-H460 lung
NCI-H522 lung = system: NCI-H522 lung
NCI/ADR-RES ovarian = system: NCI/ADR-RES ovarian
OVCAR-3 ovarian = system: OVCAR-3 ovarian
OVCAR-4 ovarian = system: OVCAR-4 ovarian
OVCAR-5 ovarian = system: OVCAR-5 ovarian
OVCAR-8 ovarian = system: OVCAR-8 ovarian
PC-3 prostate = system: PC-3 prostate
RPMI-8226 leukemia = system: RPMI-8226 leukemia
RXF 393 renal = system: RXF 393 renal
SF-268 CNS = system: SF-268 CNS
SF-295 CNS = system: SF-295 CNS
SF-539 CNS = system: SF-539 CNS
SK-MEL-2 melanoma = system: SK-MEL-2 melanoma
SK-MEL-28 melanoma = system: SK-MEL-28 melanoma
SK-MEL-5 melanoma = system: SK-MEL-5 melanoma
SK-OV-3 ovarian = system: SK-OV-3 ovarian
SN12C renal = system: SN12C renal
SNB-19 CNS = system: SNB-19 CNS
SNB-75 CNS = system: SNB-75 CNS
SR leukemia = system: SR leukemia
SW-620 colon = system: SW-620 colon
T-47D breast = system: T-47D breast
TK-10 renal = system: TK-10 renal
U251 CNS = system: U251 CNS
UACC-257 melanoma = system: UACC-257 melanoma
UACC-62 melanoma = system: UACC-62 melanoma
UO-31 renal = system: UO-31 renal

`NCCOc1ncccc1/C=C1\c2ccccc2-c2ccc(F)cc21` showed a GI50 (786-0 renal) of 575 nM, a TGI (786-0 renal) of 1940 nM and a GI50 (A498 renal) of 1610 nM. The TGI (A498 renal) was 4770 nM, the GI50 (A549 NSCLC) was 311 nM and the TGI (A549 NSCLC) was 1920 nM. For the same compound, the GI50 (ACHN renal) was 349 nM, the TGI (ACHN renal) was 1370 nM and the GI50 (BT-549 breast) was 1640 nM. For the same compound, the TGI (BT-549 breast) was 4480 nM, the GI50 (CAKI-1 renal) was 461 nM and the TGI (CAKI-1 renal) was 2000 nM. For the same compound, the GI50 (CCRF-CEM leukemia) was 316 nM, the TGI (CCRF-CEM leukemia) was 2390 nM and the GI50 (COLO 205 colon) was 1050 nM. For the same compound, the TGI (COLO 205 colon) was 2310 nM, the GI50 (DU-145 prostate) was 467 nM and the TGI (DU-145 prostate) was 1890 nM. The GI50 (EKVX NSCLC) was 1350 nM, the TGI (EKVX NSCLC) was 3550 nM and the GI50 (HCC-2998 colon) was 1340 nM. It also gave a TGI (HCC-2998 colon) of 2750 nM, a GI50 (HCT-116 colon) of 703 nM and a TGI (HCT-116 colon) of 2120 nM. For the same compound, the GI50 (HCT-15 colon) was 781 nM, the TGI (HCT-15 colon) was 2320 nM and the GI50 (HL-60(TB) leukemia) was 340 nM. For the same compound, the TGI (HL-60(TB) leukemia) was 1300 nM, the GI50 (HOP-62 NSCLC) was 446 nM and the TGI (HOP-62 NSCLC) was 1870 nM. It also gave a GI50 (HOP-92 NSCLC) of 353 nM, a TGI (HOP-92 NSCLC) of 3190 nM and a GI50 (HS 578T breast) of 1740 nM. For the same compound, the TGI (HS 578T breast) was 5020 nM, the GI50 (HT29 colon) was 1190 nM and the TGI (HT29 colon) was 2800 nM. For the same compound, the GI50 (IGROV1 ovarian) was 1160 nM, the TGI (IGROV1 ovarian) was 2470 nM and the GI50 (K-562 leukemia) was 994 nM. It also gave a TGI (K-562 leukemia) of 3390 nM, a GI50 (KM12 colon) of 1460 nM and a TGI (KM12 colon) of 2980 nM. The GI50 (LOX IMVI melanoma) was 598 nM, the TGI (LOX IMVI melanoma) was 1980 nM and the GI50 (M14 melanoma) was 739 nM. For the same compound, the TGI (M14 melanoma) was 2260 nM, the GI50 (MALME-3M melanoma) was 1240 nM and the TGI (MALME-3M melanoma) was 2640 nM. The GI50 (MCF7 breast) was 379 nM, the TGI (MCF7 breast) was 1680 nM and the GI50 (MDA-MB-231 breast) was 1430 nM. It also gave a TGI (MDA-MB-231 breast) of 2940 nM, a GI50 (MDA-MB-435) of 1550 nM and a TGI (MDA-MB-435) of 2980 nM. It also gave a GI50 (MOLT-4 leukemia) of 282 nM, a TGI (MOLT-4 leukemia) of 1160 nM and a GI50 (NCI-H226 lung) of 1000 nM. For the same compound, the TGI (NCI-H226 lung) was 2530 nM, the GI50 (NCI-H23 lung) was 631 nM and the TGI (NCI-H23 lung) was 2510 nM. It also gave a GI50 (NCI-H460 lung) of 236 nM, a TGI (NCI-H460 lung) of 1370 nM and a GI50 (NCI-H522 lung) of 1130 nM. The TGI (NCI-H522 lung) was 2760 nM, the GI50 (NCI/ADR-RES ovarian) was 1240 nM and the TGI (NCI/ADR-RES ovarian) was 2710 nM. The GI50 (OVCAR-3 ovarian) was 1630 nM, the TGI (OVCAR-3 ovarian) was 3110 nM and the GI50 (OVCAR-4 ovarian) was 1520 nM. The TGI (OVCAR-4 ovarian) was 3470 nM, the GI50 (OVCAR-5 ovarian) was 1570 nM and the TGI (OVCAR-5 ovarian) was 3070 nM. The GI50 (OVCAR-8 ovarian) was 1080 nM, the TGI (OVCAR-8 ovarian) was 2750 nM and the GI50 (PC-3 prostate) was 1180 nM. The TGI (PC-3 prostate) was 2620 nM, the GI50 (RPMI-8226 leukemia) was 1470 nM and the TGI (RPMI-8226 leukemia) was 3510 nM. It also gave a GI50 (RXF 393 renal) of 1600 nM, a TGI (RXF 393 renal) of 3660 nM and a GI50 (SF-268 CNS) of 1080 nM. The TGI (SF-268 CNS) was 4100 nM, the GI50 (SF-295 CNS) was 462 nM and the TGI (SF-295 CNS) was 1810 nM. For the same compound, the GI50 (SF-539 CNS) was 1490 nM, the TGI (SF-539 CNS) was 2870 nM and the GI50 (SK-MEL-2 melanoma) was 1910 nM. For the same compound, the TGI (SK-MEL-2 melanoma) was 3760 nM, the GI50 (SK-MEL-28 melanoma) was 1620 nM and the TGI (SK-MEL-28 melanoma) was 3040 nM. It also gave a GI50 (SK-MEL-5 melanoma) of 1360 nM, a TGI (SK-MEL-5 melanoma) of 2680 nM and a GI50 (SK-OV-3 ovarian) of 1240 nM. The TGI (SK-OV-3 ovarian) was 2910 nM, the GI50 (SN12C renal) was 449 nM and the TGI (SN12C renal) was 1710 nM. The GI50 (SNB-19 CNS) was 570 nM, the TGI (SNB-19 CNS) was 2580 nM and the GI50 (SNB-75 CNS) was 1100 nM. For the same compound, the TGI (SNB-75 CNS) was 3260 nM, the GI50 (SR leukemia) was 116 nM and the TGI (SR leukemia) was 2940 nM. The GI50 (SW-620 colon) was 682 nM, the TGI (SW-620 colon) was 2170 nM and the GI50 (T-47D breast) was 687 nM. The TGI (T-47D breast) was 2740 nM, the GI50 (TK-10 renal) was 1370 nM and the TGI (TK-10 renal) was 2850 nM. It also gave a GI50 (U251 CNS) of 525 nM, a TGI (U251 CNS) of 1850 nM and a GI50 (UACC-257 melanoma) of 1660 nM. It also gave a TGI (UACC-257 melanoma) of 3340 nM, a GI50 (UACC-62 melanoma) of 1040 nM and a TGI (UACC-62 melanoma) of 2380 nM. It also gave a GI50 (UO-31 renal) of 1120 nM and a TGI (UO-31 renal) of 2340 nM.
